Source: ChEMBL document CHEMBL1131723, “Synthesis and structure-activity relationship of novel glycylcycline derivatives leading to the discovery of GAR-936” (1999)
≈ marks a conversion by molar mass, not a printed value.

Assays:
Assay type in all cases: functional
Escherichia coli [1] = assay: In vitro antibacterial activity against Escherichia coli UBMS 88-1 Tet B
Staphylococcus aureus [2] = assay: In vitro antibacterial activity against Staphylococcus aureus UBMS 90-3 sensitive
Staphylococcus aureus [3] = assay: In vitro antibacterial activity against Staphylococcus aureus UBMS 90-1 Tet M
Staphylococcus aureus [4] = assay: In vitro antibacterial activity against Staphylococcus aureus Smith sensitive
Escherichia coli [5] = assay: In vitro antibacterial activity against Escherichia coli PRP1 Tet A
Escherichia coli [6] = assay: In vitro antibacterial activity against Escherichia coli J3272 Tet D
Escherichia coli [7] = assay: In vitro antibacterial activity against Escherichia coli J3272 Tet C
Escherichia coli [8] = assay: In vitro antibacterial activity against Escherichia coli UBMS 90-5 sensitive
Staphylococcus aureus [9] = assay: In vitro antibacterial activity against Staphylococcus aureus UBMS 88-7 Tet K
Enterococcus = assay: In vitro antibacterial activity against Enterococcus ATCC 29212
Escherichia coli [10] = assay: In vitro antibacterial activity against Escherichia coli UBMS 90-4 Tet M

Row | SMILES | MIC (Escherichia coli [1]) | MIC (Staphylococcus aureus [2]) | MIC (Staphylococcus aureus [3]) | MIC (Staphylococcus aureus [4]) | MIC (Escherichia coli [5]) | MIC (Escherichia coli [6]) | MIC (Escherichia coli [7]) | MIC (Escherichia coli [8]) | MIC (Staphylococcus aureus [9]) | MIC (Enterococcus) | MIC (Escherichia coli [10])
1 | CN(C)c1cc(NC(=O)CBr)c(O)c2c1CC1CC3[C@H](N(C)C)C(=O)C(C(N)=O)=C(O)[C@@]3(O)C(=O)C1=C2O (some centres undefined) | > 32 µg/mL | 0.5 µg/mL (≈ 0.843 µM) | 1 µg/mL (≈ 1.69 µM) | 0.5 µg/mL (≈ 0.843 µM) | > 32 µg/mL | 32 µg/mL (≈ 53.9 µM) | > 32 µg/mL | 16 µg/mL (≈ 27 µM) | 2 µg/mL (≈ 3.37 µM) | 0.5 µg/mL (≈ 0.843 µM) | 
2 | CN(C)c1cc(NC(=O)CN2CCCC2)c(O)c2c1CC1CC3[C@H](N(C)C)C(=O)C(C(N)=O)=C(O)[C@@]3(O)C(=O)C1=C2O (some centres undefined) | 0.25 µg/mL (≈ 0.428 µM) | 0.12 µg/mL (≈ 0.206 µM) | 0.12 µg/mL (≈ 0.206 µM) | 0.12 µg/mL (≈ 0.206 µM) | 0.5 µg/mL (≈ 0.857 µM) | 0.12 µg/mL (≈ 0.206 µM) | 0.25 µg/mL (≈ 0.428 µM) | 0.25 µg/mL (≈ 0.428 µM) | 0.5 µg/mL (≈ 0.857 µM) | 0.12 µg/mL (≈ 0.206 µM) | 0.25 µg/mL (≈ 0.428 µM)
3 | CNCC(=O)Nc1cc(N(C)C)c2c(c1O)C(=O)C1=C(O)[C@]3(O)C(O)=C(C(N)=O)C(=O)[C@@H](N(C)C)C3CC1C2 (some centres undefined) | 1 µg/mL (≈ 1.84 µM) | 0.5 µg/mL (≈ 0.92 µM) | 1 µg/mL (≈ 1.84 µM) | 0.5 µg/mL (≈ 0.92 µM) | 16 µg/mL (≈ 29.4 µM) | 0.5 µg/mL (≈ 0.92 µM) | 8 µg/mL (≈ 14.7 µM) | 1 µg/mL (≈ 1.84 µM) | 16 µg/mL (≈ 29.4 µM) | 0.5 µg/mL (≈ 0.92 µM) | 
4 | CN(C)CC(=O)Nc1cc(N(C)C)c2c(c1O)C(=O)C1=C(O)[C@]3(O)C(O)=C(C(N)=O)C(=O)[C@@H](N(C)C)C3CC1C2 (some centres undefined) | 0.25 µg/mL (≈ 0.448 µM) | 0.03 µg/mL (≈ 0.0538 µM) | 0.25 µg/mL (≈ 0.448 µM) | 0.06 µg/mL (≈ 0.108 µM) | 1 µg/mL (≈ 1.79 µM) | 0.12 µg/mL (≈ 0.215 µM) | 1 µg/mL (≈ 1.79 µM) | 0.25 µg/mL (≈ 0.448 µM) | 0.25 µg/mL (≈ 0.448 µM) | 0.06 µg/mL (≈ 0.108 µM) | 0.25 µg/mL (≈ 0.448 µM)
5 | CN(C)c1cc(NC(=O)CN2CCOCC2)c(O)c2c1CC1CC3[C@H](N(C)C)C(=O)C(C(N)=O)=C(O)[C@@]3(O)C(=O)C1=C2O (some centres undefined) | > 32 µg/mL | 2 µg/mL (≈ 3.34 µM) | 4 µg/mL (≈ 6.67 µM) | 2 µg/mL (≈ 3.34 µM) | > 32 µg/mL | 32 µg/mL (≈ 53.4 µM) | > 32 µg/mL | > 32 µg/mL | 32 µg/mL (≈ 53.4 µM) | 2 µg/mL (≈ 3.34 µM) | 
6 | CN(C)c1cc(NC(=O)Cn2ccnc2)c(O)c2c1CC1CC3[C@H](N(C)C)C(=O)C(C(N)=O)=C(O)[C@@]3(O)C(=O)C1=C2O (some centres undefined) | > 32 µg/mL | 4 µg/mL (≈ 6.89 µM) | 32 µg/mL (≈ 55.1 µM) | 4 µg/mL (≈ 6.89 µM) | > 32 µg/mL | 32 µg/mL (≈ 55.1 µM) | > 32 µg/mL | > 32 µg/mL | 32 µg/mL (≈ 55.1 µM) | 4 µg/mL (≈ 6.89 µM) | > 32 µg/mL
7 | CN(C)c1cc(NC(=O)CN2CCC2)c(O)c2c1CC1CC3[C@H](N(C)C)C(=O)C(C(N)=O)=C(O)[C@@]3(O)C(=O)C1=C2O (some centres undefined) | 0.5 µg/mL (≈ 0.878 µM) | 0.12 µg/mL (≈ 0.211 µM) | 0.25 µg/mL (≈ 0.439 µM) | 0.25 µg/mL (≈ 0.439 µM) | 1 µg/mL (≈ 1.76 µM) | 0.12 µg/mL (≈ 0.211 µM) | 0.5 µg/mL (≈ 0.878 µM) | 0.25 µg/mL (≈ 0.439 µM) | 2 µg/mL (≈ 3.51 µM) | 0.25 µg/mL (≈ 0.439 µM) | 0.25 µg/mL (≈ 0.439 µM)
8 | CN(C)c1cc(NC(=O)CNC2CCCC2)c(O)c2c1CC1CC3[C@H](N(C)C)C(=O)C(C(N)=O)=C(O)[C@@]3(O)C(=O)C1=C2O (some centres undefined) | 0.25 µg/mL (≈ 0.418 µM) | 0.12 µg/mL (≈ 0.201 µM) | 0.25 µg/mL (≈ 0.418 µM) | 0.25 µg/mL (≈ 0.418 µM) | 1 µg/mL (≈ 1.67 µM) | 0.12 µg/mL (≈ 0.201 µM) | 0.25 µg/mL (≈ 0.418 µM) | 0.25 µg/mL (≈ 0.418 µM) | 2 µg/mL (≈ 3.35 µM) | 0.12 µg/mL (≈ 0.201 µM) | 0.25 µg/mL (≈ 0.418 µM)
9 | CCCNCC(=O)Nc1cc(N(C)C)c2c(c1O)C(=O)C1=C(O)[C@]3(O)C(O)=C(C(N)=O)C(=O)[C@@H](N(C)C)C3CC1C2 (some centres undefined) | 0.5 µg/mL (≈ 0.875 µM) | 0.25 µg/mL (≈ 0.437 µM) | 0.5 µg/mL (≈ 0.875 µM) | 0.25 µg/mL (≈ 0.437 µM) | 2 µg/mL (≈ 3.5 µM) | 0.12 µg/mL (≈ 0.21 µM) | 0.5 µg/mL (≈ 0.875 µM) | 0.5 µg/mL (≈ 0.875 µM) | 2 µg/mL (≈ 3.5 µM) | 0.25 µg/mL (≈ 0.437 µM) | 0.25 µg/mL (≈ 0.437 µM)
10 | CN(C)c1ccc(O)c2c1C[C@H]1C[C@H]3[C@H](N(C)C)C(O)=C(C(N)=O)C(=O)[C@@]3(O)C(O)=C1C2=O [MINOCYCLINE] | > 32 µg/mL | 2 µg/mL (≈ 4.37 µM) | 8 µg/mL (≈ 17.5 µM) | 2 µg/mL (≈ 4.37 µM) | > 32 µg/mL | 4 µg/mL (≈ 8.74 µM) | 32 µg/mL (≈ 69.9 µM) | 16 µg/mL (≈ 35 µM) | 16 µg/mL (≈ 35 µM) | 4 µg/mL (≈ 8.74 µM) | 16 µg/mL (≈ 35 µM)
11 | CN(C)[C@@H]1C(O)=C(C(N)=O)C(=O)[C@@]2(O)C(O)=C3C(=O)c4c(O)cccc4[C@@](C)(O)[C@H]3C[C@@H]12 [TETRACYCLINE] | > 32 µg/mL | 0.25 µg/mL (≈ 0.563 µM) | > 32 µg/mL | 0.25 µg/mL (≈ 0.563 µM) | 32 µg/mL (≈ 72 µM) | 8 µg/mL (≈ 18 µM) | > 32 µg/mL | 1 µg/mL (≈ 2.25 µM) | > 32 µg/mL | 16 µg/mL (≈ 36 µM) | > 32 µg/mL
12 | CN(C)c1cc(NC(=O)CNC(C)(C)C)c(O)c2c1C[C@H]1C[C@H]3[C@H](N(C)C)C(O)=C(C(N)=O)C(=O)[C@@]3(O)C(O)=C1C2=O [TIGECYCLINE] | 0.5 µg/mL (≈ 0.854 µM) | 0.25 µg/mL (≈ 0.427 µM) | 0.12 µg/mL (≈ 0.205 µM) | 0.25 µg/mL (≈ 0.427 µM) | 0.25 µg/mL (≈ 0.427 µM) | 0.12 µg/mL (≈ 0.205 µM) | 0.25 µg/mL (≈ 0.427 µM) | 0.25 µg/mL (≈ 0.427 µM) | 0.5 µg/mL (≈ 0.854 µM) | 0.12 µg/mL (≈ 0.205 µM) | 0.12 µg/mL (≈ 0.205 µM)
